Test systems include 786-0 renal; BT-549 breast; COLO 205 colon; DU-145 prostate; HL-60(TB) leukemia; HOP-62 NSCLC; HT29 colon; K-562 leukemia; LOX IMVI melanoma; MDA-MB-231 breast; MDA-N; MOLT-4 leukemia; NCI-H522 lung; PC-3 prostate; SF-539 CNS; SK-MEL-2 melanoma; SN12C renal; SNB-75 CNS; UACC-62 melanoma; UO-31 renal.
Common to all, as to test: DTP human tumour cell line panel, 48 h

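Where inhibition never reached the appropriate level, the endpoint shown equals the highest concentration tested. Otherwise, values were interpolated linearly from a five-concentration, 48-hour dose response in 96-well plates. At the TGI there is no net growth.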

For orientation: TGI means the concentration giving total growth inhibition. Low readings indicate more potent growth arrest, high ones less potent growth arrest.

As for `Cc1sc(C)c2c1C(=O)CC2N` (stereo not given), the total growth inhibition concentration (TGI) is 22.5 µM with 786-0 renal; 43.7 µM with BT-549 breast; 40.1 µM with COLO 205 colon; 30.3 µM with DU-145 prostate; 22.9 µM with HL-60(TB) leukemia; over 100 µM in the test on HOP-62 NSCLC. Moreover, the TGI is over 59.3 µM in the test on HT29 colon; over 56.1 µM in the test on K-562 leukemia; 32.2 µM in the test with LOX IMVI melanoma; 57 µM in the test on MDA-MB-231 breast; over 57.4 µM with MDA-N; 23.7 µM with MOLT-4 leukemia. For the same compound, the TGI is 10.9 µM in the test with NCI-H522 lung; over 60.6 µM in the test on PC-3 prostate; 14.2 µM in the test on SF-539 CNS; over 100 µM in the test with SK-MEL-2 melanoma; over 58.6 µM with SN12C renal; over 83.1 µM in the test with SNB-75 CNS. Besides, the results for the TGI in the test on UACC-62 melanoma and with UO-31 renal were over 100 µM and 29.5 µM, respectively.

Take `O=C(CCCl)NNC1=NCCCCN1`: the TGI in the test with 786-0 renal, in the test on BT-549 breast, with COLO 205 colon, with DU-145 prostate, with HL-60(TB) leukemia and with HOP-62 NSCLC was over 100 µM throughout. In addition, the total growth inhibition concentration (TGI) with HT29 colon, in the test with K-562 leukemia, in the test with LOX IMVI melanoma, with MDA-MB-231 breast, in the test with MDA-N and with MOLT-4 leukemia was over 100 µM in each case. The concentration for total growth inhibition (TGI) with NCI-H522 lung, in the test with PC-3 prostate, in the test with SF-539 CNS, in the test with SK-MEL-2 melanoma, in the test on SN12C renal and in the test on SNB-75 CNS was over 100 µM each time. Also, the TGI with UACC-62 melanoma and in the test on UO-31 renal was over 100 µM throughout.

On to `CO[C@@H]1C[C@H]2N3CC[C@@]2(c2cc4c(cc2C3)OCO4)[C@H]2O[C@@H]12`, for which the total growth inhibition concentration (TGI) was over 100 µM in the test on 786-0 renal; over 100 µM with BT-549 breast; 2.24 µM in the test on COLO 205 colon; over 100 µM in the test on DU-145 prostate; over 100 µM in the test with HL-60(TB) leukemia; over 100 µM with HOP-62 NSCLC. Also, the concentration for total growth inhibition (TGI) in the test with HT29 colon, with K-562 leukemia, with LOX IMVI melanoma, with MDA-MB-231 breast, with MDA-N and in the test with MOLT-4 leukemia was over 100 µM throughout. For the same compound, the TGI in the test with NCI-H522 lung is over 100 µM; with PC-3 prostate it was over 100 µM; with SF-539 CNS, 2.88 µM; in the test with SK-MEL-2 melanoma, over 100 µM; with SN12C renal, over 100 µM; in the test with SNB-75 CNS, over 100 µM. In addition, the TGI with UACC-62 melanoma and in the test on UO-31 renal was over 100 µM in each case.

As to `Oc1cccc2cc(Br)cnc12`, the concentration for total growth inhibition (TGI) with 786-0 renal was over 100 µM; with BT-549 breast, over 100 µM; in the test on COLO 205 colon, 97.5 µM; in the test with DU-145 prostate, over 100 µM; with HL-60(TB) leukemia it was 4 µM; with HOP-62 NSCLC it was over 100 µM. Moreover, the total growth inhibition concentration (TGI) in the test on HT29 colon is over 73.1 µM; in the test with K-562 leukemia, 16.1 µM; in the test on LOX IMVI melanoma it was over 39.7 µM; with MDA-MB-231 breast it was over 47.1 µM; in the test on MDA-N, over 100 µM; in the test on MOLT-4 leukemia, 14.9 µM. In addition, the TGI with NCI-H522 lung was 9.18 µM; with PC-3 prostate, over 100 µM; with SF-539 CNS, 57.3 µM; in the test on SK-MEL-2 melanoma, over 100 µM; with SN12C renal it was over 100 µM; in the test with SNB-75 CNS it was over 83.2 µM. Further, the TGI with UACC-62 melanoma is 29.2 µM; in the test on UO-31 renal it was over 76.1 µM.

Take `NC(Cc1ccc(S(=O)(=O)O)cc1)C(=O)NC(Cc1ccc(S(=O)(=O)O)cc1)C(=O)NC(Cc1ccc(S(=O)(=O)O)cc1)C(=O)O` (stereo not given): the TGI with 786-0 renal, with BT-549 breast, with COLO 205 colon, with DU-145 prostate, with HL-60(TB) leukemia and with HOP-62 NSCLC was over 100 µM throughout. Also, the concentration for total growth inhibition (TGI) with HT29 colon, in the test on K-562 leukemia, with LOX IMVI melanoma, in the test on MDA-MB-231 breast, with MDA-N and with MOLT-4 leukemia was over 100 µM each time. For the same compound, the total growth inhibition concentration (TGI) with NCI-H522 lung, in the test on PC-3 prostate, in the test with SF-539 CNS, in the test on SK-MEL-2 melanoma, in the test with SN12C renal and in the test with SNB-75 CNS was over 100 µM each time. Also, the TGI in the test on UACC-62 melanoma and with UO-31 renal was over 100 µM in each case.

For the compound `O=c1oc2ccc(Cl)cc2cc1-c1cn2ccccc2n1`, the concentration for total growth inhibition (TGI) in the test on 786-0 renal is 18 µM; with BT-549 breast, over 100 µM; with COLO 205 colon, over 100 µM; in the test on DU-145 prostate it was over 100 µM; in the test with HL-60(TB) leukemia, over 100 µM; with HOP-62 NSCLC it was 16.1 µM. In addition, the concentration for total growth inhibition (TGI) is over 50.6 µM in the test with HT29 colon; over 100 µM with K-562 leukemia; over 100 µM in the test with LOX IMVI melanoma; over 52.7 µM in the test with MDA-MB-231 breast; over 100 µM in the test on MDA-N; over 100 µM with MOLT-4 leukemia. In addition, the total growth inhibition concentration (TGI) in the test on NCI-H522 lung is over 100 µM; in the test with PC-3 prostate, over 100 µM; with SF-539 CNS it was over 100 µM; in the test with SK-MEL-2 melanoma, over 100 µM; with SN12C renal it was 36.8 µM; with SNB-75 CNS, over 41.3 µM. Moreover, the figures for the TGI in the test on UACC-62 melanoma and in the test on UO-31 renal were 38.2 µM and 19.2 µM, respectively.

Take `Cc1ccc(/C=C2\CCCC(CN(C)C)C2=O)cc1` (stereo not given): the concentration for total growth inhibition (TGI) is 3.23 µM in the test with 786-0 renal; 6.4 µM in the test with BT-549 breast; 3.13 µM with COLO 205 colon; 21.9 µM with DU-145 prostate; over 100 µM in the test with HL-60(TB) leukemia; 34.7 µM with HOP-62 NSCLC. Also, the total growth inhibition concentration (TGI) is 3.07 µM with HT29 colon; over 100 µM with K-562 leukemia; 3.38 µM in the test with LOX IMVI melanoma; 3.08 µM with MDA-MB-231 breast; 3.85 µM in the test on MDA-N; over 100 µM in the test with MOLT-4 leukemia. Further, the TGI came to 1.98 µM in the test on NCI-H522 lung; 8.9 µM with PC-3 prostate; 6.61 µM in the test on SF-539 CNS; 15.4 µM with SK-MEL-2 melanoma; 3.91 µM in the test with SN12C renal; 20.3 µM in the test with SNB-75 CNS. Further, the TGI with UACC-62 melanoma is 5.09 µM; in the test on UO-31 renal it was 3.12 µM.

For the compound `Oc1ccccc1C1=NOC(c2ccc(C(F)(F)F)cc2)C1` (stereo not given), the concentration for total growth inhibition (TGI) in the test on 786-0 renal, in the test on BT-549 breast, in the test on COLO 205 colon, in the test on DU-145 prostate, with HL-60(TB) leukemia and in the test on HOP-62 NSCLC was over 50 µM in each case. The concentration for total growth inhibition (TGI) in the test on HT29 colon, in the test on K-562 leukemia, in the test with LOX IMVI melanoma, in the test on MDA-MB-231 breast, in the test with MDA-N and with MOLT-4 leukemia was over 50 µM in each case. Also, the concentration for total growth inhibition (TGI) in the test on NCI-H522 lung, in the test on PC-3 prostate, in the test with SF-539 CNS, in the test on SK-MEL-2 melanoma, in the test with SN12C renal and in the test on SNB-75 CNS was over 50 µM in each case. The concentration for total growth inhibition (TGI) in the test on UACC-62 melanoma and in the test on UO-31 renal was over 50 µM each time.

As to `CN(C)CC1CCCCCCCCCC(CN(C)C)C1=O` (stereo not given), the total growth inhibition concentration (TGI) was over 40.6 µM in the test with 786-0 renal; 18.7 µM in the test on BT-549 breast; over 100 µM in the test on COLO 205 colon; 31.1 µM in the test with DU-145 prostate; over 100 µM in the test with HL-60(TB) leukemia; over 62.4 µM in the test with HOP-62 NSCLC. The TGI is over 43.8 µM in the test on HT29 colon; over 38.5 µM with K-562 leukemia; over 37.2 µM with LOX IMVI melanoma; 84.6 µM with MDA-MB-231 breast; 30.9 µM with MDA-N; over 25.7 µM with MOLT-4 leukemia. The TGI in the test with NCI-H522 lung was 10.5 µM; in the test on PC-3 prostate, 19.4 µM; in the test on SF-539 CNS, over 47 µM; in the test on SK-MEL-2 melanoma it was over 67.4 µM; with SN12C renal, over 53.5 µM; with SNB-75 CNS it was over 44.9 µM. Further, the TGI in the test on UACC-62 melanoma is over 44.1 µM; in the test with UO-31 renal it was over 53.3 µM.

As for `N#Cc1c(O)c(N=Nc2ccc(Cl)cc2)c(=O)n2c1[nH]c1ccccc12`, the TGI is over 100 µM with 786-0 renal; over 100 µM in the test on BT-549 breast; over 100 µM in the test with COLO 205 colon; over 100 µM in the test on DU-145 prostate; over 100 µM in the test with HL-60(TB) leukemia; 65.3 µM with HOP-62 NSCLC. In addition, the TGI in the test with HT29 colon, in the test with K-562 leukemia, with LOX IMVI melanoma, with MDA-MB-231 breast, with MDA-N and with MOLT-4 leukemia was over 100 µM each time. Further, the TGI in the test on NCI-H522 lung, with PC-3 prostate, in the test with SF-539 CNS, in the test with SK-MEL-2 melanoma, in the test on SN12C renal and in the test on SNB-75 CNS was over 100 µM in each case. Besides, the TGI with UACC-62 melanoma and in the test with UO-31 renal was over 100 µM each time.

Turning to `CN(C)C=NCCN1CCOCC1`, the concentration for total growth inhibition (TGI) with 786-0 renal, with BT-549 breast, with COLO 205 colon, in the test with DU-145 prostate, in the test on HL-60(TB) leukemia and in the test with HOP-62 NSCLC was over 100 µM in each case. Moreover, the total growth inhibition concentration (TGI) with HT29 colon, with K-562 leukemia, in the test with LOX IMVI melanoma, with MDA-MB-231 breast, with MDA-N and in the test on MOLT-4 leukemia was over 100 µM throughout. Further, the TGI in the test with NCI-H522 lung, in the test with PC-3 prostate, with SF-539 CNS, with SK-MEL-2 melanoma, in the test with SN12C renal and with SNB-75 CNS was over 100 µM in each case. The total growth inhibition concentration (TGI) in the test on UACC-62 melanoma and with UO-31 renal was over 100 µM each time.

(Values after PubChem BioAssay (NCI).)
